Reference: publication PMC9133015 (Nature Communications, 2022)
Values joined by “and” are separate entries in the source; they are usually repeats but may differ in a detail not shown here. Equal entries are not always repeated. Where two headings read alike, the source gives them in different places.

Target: T1, DYRK2 (Homo sapiens, UniProt Q92630)
T1 construct: purchased Reaction Biology Corporation (assay service)
T1 sequence (Q92630 1-601): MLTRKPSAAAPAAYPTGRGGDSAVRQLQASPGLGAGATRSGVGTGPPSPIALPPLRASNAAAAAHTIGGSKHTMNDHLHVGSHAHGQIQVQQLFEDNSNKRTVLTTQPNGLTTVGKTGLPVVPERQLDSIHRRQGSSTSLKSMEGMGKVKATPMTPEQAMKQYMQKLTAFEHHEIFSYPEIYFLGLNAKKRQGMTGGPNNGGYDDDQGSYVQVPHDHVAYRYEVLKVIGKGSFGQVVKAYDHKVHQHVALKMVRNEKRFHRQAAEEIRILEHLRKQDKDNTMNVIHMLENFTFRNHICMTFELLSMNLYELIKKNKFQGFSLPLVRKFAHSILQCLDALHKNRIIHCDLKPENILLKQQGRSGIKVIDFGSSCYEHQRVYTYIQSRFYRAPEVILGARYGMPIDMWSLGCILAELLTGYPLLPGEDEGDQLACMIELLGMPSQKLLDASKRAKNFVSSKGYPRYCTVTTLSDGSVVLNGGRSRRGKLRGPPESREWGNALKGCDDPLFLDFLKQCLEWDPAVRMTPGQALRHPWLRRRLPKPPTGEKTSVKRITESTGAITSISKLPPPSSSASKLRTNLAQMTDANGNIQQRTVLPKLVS
Assay: DYRKs kinase activity assay (33P-ATP, DYRKtide substrate): DYRK2
Format: biochemical
Conditions: for DYRK2 inhibitory activity (in words): structural optimization of lead 12

[1] = DYRK2 kinase, Conc. 0.000508053 µM, duplicate values
[2] = DYRK2 kinase, Conc. 0.00152416 µM, duplicate values
[3] = DYRK2 kinase, Conc. 0.00457247 µM, duplicate values
[4] = DYRK2 kinase, Conc. 0.0137174 µM, duplicate values
[5] = DYRK2 kinase, Conc. 0.0411523 µM, duplicate values
[6] = DYRK2 kinase, Conc. 0.123457 µM, duplicate values
[7] = DYRK2 kinase, Conc. 0.37037 µM, duplicate values
[8] = DYRK2 kinase, Conc. 1.11111 µM, duplicate values
[9] = DYRK2 kinase, Conc. 3.33333 µM, duplicate values
[10] = DYRK2 kinase, Conc. 10 µM, duplicate values
[11] = Supplementary Table 1, read-out: IC50 (μM), DYRK2 kinase
[12] = DYRK2 kinase, Conc. 0.0137174 µM, duplicate values, read-out: % Inhibition
[13] = DYRK2 kinase, Conc. 0.0411523 µM, duplicate values, read-out: % Inhibition
[14] = DYRK2 kinase, Conc. 0.123457 µM, duplicate values, read-out: % Inhibition
[15] = DYRK2 kinase, Conc. 0.37037 µM, duplicate values, read-out: % Inhibition
[16] = DYRK2 kinase, Conc. 1.11111 µM, duplicate values, read-out: % Inhibition
[17] = DYRK2 kinase, Conc. 3.33333 µM, duplicate values, read-out: % Inhibition
[18] = DYRK2 kinase, Conc. 10 µM, duplicate values, read-out: % Inhibition
[19] = DYRK2 kinase, Conc. 1.66667 µM, duplicate values

Row | SMILES | % Inhibition [1] | % Inhibition [2] | % Inhibition [3] | % Inhibition [4] | % Inhibition [5] | % Inhibition [6] | % Inhibition [7] | % Inhibition [8] | % Inhibition [9] | % Inhibition [10] | IC50 [11] [µM] | further results
1 | CC(C)N1CCN(C(=O)c2ccc(Nc3ncc(F)c(-c4ccc5nc(N(C)C)sc5c4)n3)nc2)CC1 [Compound 25] | 4.24% and 12.86% | 17.49% | 28.06% | 45.74% | 67.90% | 84.14% | 92.83% | 95.77% | 95.36% | 95.58% |  | inhibition at 0.00152416 µM (DYRK2 kinase, Conc. 0.00152416 µM, duplicate values, read-out: % Inhibition): 14%; inhibition at 0.00457247 µM [3]: 27.4%; inhibition at 0.0137174 µM [12]: 44.6%; inhibition at 0.0411523 µM [13]: 69.6%; inhibition at 0.123457 µM [14]: 84.5%; inhibition at 0.37037 µM [15]: 93.3%; inhibition at 1.11111 µM [16]: 98%; inhibition at 3.33333 µM [17]: 94.3%; inhibition at 10 µM [18]: 96.2%; DYRK2 inhibitory activity (in words): further improved DYRK2 inhibitory activity
2 | COc1cc(-c2nnc(CSc3nc4c(OC)ccc(OC)c4[nH]3)o2)cc(OC)c1OC [Compound 15] | -1.53% and -4.09% | -4.76% and -6.22% | -1.13% and -0.37% | -10.53% and -12.16% | -9.17% and -11.37% | -2.00% and -9.98% | -8.29% and -9.76% | -3.66% and -9.01% | 0.93% and -1.24% | 16.42% and 14.23% | > 10 | 
3 | CC(C)Cc1nc(N2CCN(CC(=O)NCc3ccco3)CC2)c(C#N)c2c1COC(C)(C)C2 [Compound 14] | 0.98% and 2.97% | 13.91% and 15.64% | 3.50% and 5.44% | 7.06% and 8.93% | 12.96% and 14.71% | 25.38% and 26.88% | 22.08% and 23.65% | 26.44% and 27.92% | 22.42% and 24.14% | 27.65% and 29.11% | > 10 | 
4 | CCN1CCN(C(=O)c2ccc(Nc3ncc(F)c(-c4ccc5nc(N(C)C)sc5c4)n3)nc2)CC1 [Compound 26 (YK-2-69)] |  |  |  |  |  |  |  |  |  |  |  | % Inhibition (DYRK2 kinase, Conc. 0.000762079 µM, duplicate values): 2.89% and 7.10%; % Inhibition (DYRK2 kinase, Conc. 0.00228624 µM, duplicate values): 21.49%; inhibition at 0.00228624 µM (DYRK2 kinase, Conc. 0.00228624 µM, duplicate values, read-out: % Inhibition): 26.1%; % Inhibition (DYRK2 kinase, Conc. 0.00685871 µM, duplicate values): 46.13%; inhibition at 0.00685871 µM (DYRK2 kinase, Conc. 0.00685871 µM, duplicate values, read-out: % Inhibition): 53%; % Inhibition (DYRK2 kinase, Conc. 0.0205761 µM, duplicate values): 59.65%; inhibition at 0.0205761 µM (DYRK2 kinase, Conc. 0.0205761 µM, duplicate values, read-out: % Inhibition): 65.2%; % Inhibition (DYRK2 kinase, Conc. 0.0617284 µM, duplicate values): 82.13%; inhibition at 0.0617284 µM (DYRK2 kinase, Conc. 0.0617284 µM, duplicate values, read-out: % Inhibition): 82.1%; % Inhibition (DYRK2 kinase, Conc. 0.185185 µM, duplicate values): 93.18%; inhibition at 0.185185 µM (DYRK2 kinase, Conc. 0.185185 µM, duplicate values, read-out: % Inhibition): 94.1%; % Inhibition (DYRK2 kinase, Conc. 0.555556 µM, duplicate values): 96.77%; inhibition at 0.555556 µM (DYRK2 kinase, Conc. 0.555556 µM, duplicate values, read-out: % Inhibition): 96.8%; % Inhibition [19]: 98.11%; inhibition at 1.66667 µM [19]: 97.3%; % Inhibition (DYRK2 kinase, Conc. 5 µM, duplicate values): 97.16%; inhibition at 5 µM (DYRK2 kinase, Conc. 5 µM, duplicate values, read-out: % Inhibition): 97.8%
5 | CCN1CCN(Cc2ccc(Nc3ncc(F)c(-c4cnc5ccnn5c4)n3)nc2)CC1 [Compound 19] | -1.87% and -5.39% | -4.33% and -7.82% | -8.64% and -11.90% | -12.62% and -14.01% | -8.54% and -12.22% | 0.35% and 0.01% | 1.52% and -0.10% | 6.04% | 1.80% and -0.24% | 26.16% |  | inhibition at 1.11111 µM [16]: 8.33%; inhibition at 10 µM [18]: 28%; DYRK2 inhibitory activity (in words): significantly decreased
6 | Cc1nc2ccc(-c3nc(Nc4ccc(C(=O)N5CCNCC5)cn4)ncc3F)cc2s1.Cl [Compound 24] | 2.20% and 10.58% | 4.62% and 14.25% | 24.52% | 39.86% | 60.50% | 75.45% | 85.34% | 90.57% | 94.68% | 98.21% |  | inhibition at 0.00457247 µM [3]: 19.2%; inhibition at 0.0137174 µM [12]: 35.4%; inhibition at 0.0411523 µM [13]: 61%; inhibition at 0.123457 µM [14]: 73%; inhibition at 0.37037 µM [15]: 86.1%; inhibition at 1.11111 µM [16]: 92%; inhibition at 3.33333 µM [17]: 95%; inhibition at 10 µM [18]: 97%; IC50 (read-out: DYRK2 IC50): 0.027 µM
7 | COc1ccc(C2CC(c3ccc(Cl)cc3)=NN2c2ccc(C=NNc3ccccc3)cc2)cc1 (stereo not shown) [Compound 3] | 1.91% and 4.22% | 6.35% and 8.58% | 2.63% and 4.93% | 8.54% and 10.71% | 6.26% and 8.49% | 10.47% and 12.60% | 12.78% and 14.86% | 20.14% and 19.70% | 22.94% and 20.08% | 22.88% and 24.74% | > 10 | 

More lines, main results first:

Row | % Inhibition [1] | % Inhibition [2] | % Inhibition [3] | % Inhibition [4] | % Inhibition [5] | % Inhibition [6] | % Inhibition [7] | % Inhibition [8] | % Inhibition [9] | % Inhibition [10] | IC50 [11] [µM] | SMILES | further results
8 | -5.36% and -2.56% | -6.00% and -8.80% | -4.71% and -7.51% | 3.44% and 4.28% | 3.20% and 5.16% | 5.94% and 3.15% | 4.61% and 6.29% | 5.16% and 2.64% | 1.41% and 4.21% | 9.74% and 12.54% | > 10 | Cc1ccccc1C1C=C(c2ccccc2)OC(c2ccccc2)=C1C=NCCc1c[nH]c2ccccc12 (stereo not shown) [Compound 2] | 
9 | -1.87% and -4.38% | -4.34% and -6.85% | -8.65% and -6.11% | -12.64% and -10.09% | -8.55% and -6.02% | -2.02% and 0.35% | 1.52% and 4.04% | 8.35% and 5.81% | 1.80% and 0.0379% | 28.07% and 27.88% | > 10 | CC(C)c1ccc2c(c1)C(N1CCN(CCc3ccc(F)cc3)CC1)Cc1ccc(F)cc1S2 (stereo not shown) [Compound 1] | 
10 | -7.03% and -8.01% | -4.24% and -5.18% | -3.26% and -1.51% | -9.75% and -7.91% | -10.96% and -9.20% | 0.34% and -3.30% | 1.49% and 3.01% | 15.95% and 17.31% | 6.96% and 8.47% | 22.24% and 25.76% | > 10 | Cn1c(=O)c2ncn(CC(=O)Nc3ccc4oc(-c5ccc(Cl)cc5Cl)nc4c3)c2n(C)c1=O [Compound 10] | 
11 | 1.24% and 7.59% | -1.11% and 5.39% | 11.00% and 16.72% | 2.77% and 9.02% | 5.65% and 11.72% | 2.54% and 8.81% | 4.47% and 10.61% | 17.84% and 23.14% | 28.55% and 33.16% | 29.52% and 31.99% | > 10 | CC(=NNc1nc2c(c(=O)n(Cc3ccccc3)c(=O)n2C)n1Cc1ccccc1)c1ccccc1 [Compound 5] | 
12 | 0.43% and 0.42% | 1.70% and 1.66% | -1.24% and 1.19% | -4.62% and -2.11% | -1.40% and 1.03% | 2.80% and 5.13% | 6.00% and 8.26% | 12.51% and 17.02% | 18.00% and 19.98% | 35.11% and 36.69% | > 10 | CC(C)COc1cccc(-c2cc(C(=O)Nc3sc(C(C)C)cc3C(N)=O)c3ccccc3n2)c1 [Compound 9] | 
